How the values were obtained:
in vivo = conditions: dog
[1] = Plasma pharmacokinetics of oxyclozanide after topical Composition K in dogs (Example 5); format: in vivo, dog
Protocol: The cutaneous route (topical administration) was the route of administration for composition K on dogs. Composition K was applied evenly along the backbone starting from the base of the tail to the back of the neck.
For all animals of group A, a blood sample of around 4 ml was collected from the jugular vein using tubes containing lithium heparin at the following times (with tolerance of 10%): D-3a, D0a+1h, D0a+6h, D0a+12h, D0a+16h, D0a+24h, D0a+32h, D0a+48h, D3a, D5a et D7a.
Centrifugation (around 3500 revolutions/min, for 15 minutes at +4° C.) was performed a maximum of 30 minutes after sampling. The plasma was collected and then divided into two aliquots in tubes (Nunc 1.8 ml type) as follows: • S1 aliquot: around 0.5 ml • S2 aliquot: the remainder of the plasma (more than 0.5 ml)
The pharmacokinetic analysis was performed using Phoenix software (version 6.3, Pharsight, USA). Data points indicated as “missing” were systematically ignored during the calculation and therefore have no effect on the results. A missing status is assigned and no flag symbol is used. Values were excluded if, in the judgement of the pharmacokineticist, they were deemed not to be “[…].” If outliers were suspected, they were identified using the Outlier identification procedure of STATGRAPHICS.

O=C(Nc1cc(Cl)cc(Cl)c1O)c1c(O)c(Cl)cc(Cl)c1Cl [Oxyclozanide]
Vd (in vivo; iv, 2.5 mg/kg): ~0.6 L/kg | half-life (in vivo; iv, 2.5 mg/kg): 38 h | bioavailability (in vivo; po, 5 mg/kg): 48% | AUC(0-inf) (in vivo; topical or ocular, 20 mg/kg): 55700 ng·h/mL | bioavailability (in vivo; topical or ocular, 20 mg/kg): 12% | AUC(0-inf) ([1]; dog, plasma, topical or ocular, topical single 20 mg/kg Composition K, read-out: AUCinf in plasma (first value of the comparison, presumably Example 5)): 60600 ng·h/mL | concentrations of oxyclozanide in plasma after topical administration ([1]; topical 20 mg/kg Composition K): Low concentrations | bioavailability after topical administration (Example 5, by comparison of AUCinf with Example 4) ([1]; topical 20 mg/kg Composition K, not calculated, no intravenous route in this study): about 12%

Source: patent US20210379085A1, “HALOGENATED SALICYLANILIDES FOR TREATING THE SYMPTOMS OF DERMATITIS” (Union Therapeutics A/S, priority 2018, published 2021)
